Counter-ions that a name gives are not always drawn. Like-named read-outs stand apart in the source and are kept apart here.
Key:
recombinant human cGAS = recombinant human cGAS (Homo sapiens (Human), UniProt Q8N884); assay: In vitro inhibition assay of cGAS activity (cGAMP production, RapidFire mass spectrometry); format: biochemical; conditions: 10 nM recombinant human cGAS, 60 nM 75-bp dsDNA, ATP, GTP, room temperature 3 hours, read-out: IC50 (μM), In vitro inhibition assay for Compounds 95-348
How it was run: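 Product cGAMP was quantified by RapidFire MS against a difluoro-cGAMP internal standard after a formic acid quench. The reaction contained 10 nM recombinant full-length human cGAS, 75-bp dsDNA (60 nM), ATP and GTP (50 μM) and ran for 3 h at room temperature. IC50 values came from 4-parameter nonlinear regression.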

[1] = system: cGAS activity in THP1 cells (IFNb as marker); assay: Cellular assay to measure cGAS activity (IFNb production in PMA-differentiated THP1 cells stimulated by RDG-Adenovirus-GFP); format: cell-based, human; conditions: PMA differentiated, RDG-Adenovirus-GFP 1000 MOI, IFNb AlphaLISA, overnight incubation, read-out: IC50 (μM), Cellular assay for Compounds 95-348
How it was run: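 The readout is secreted IFNb measured by AlphaLISA after overnight compound exposure. THP1 cells, differentiated with PMA for 24 h and rested overnight, were infected with RDG-Adenovirus-GFP (1000 MOI, 4 h) before compounds were added; IC50 came from a 4-parameter logistic fit of inhibition against log concentration.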

[2] = Homo sapiens, THP-1, THP1 cells

Chain of recombinant human cGAS (Q8N884 whole entry): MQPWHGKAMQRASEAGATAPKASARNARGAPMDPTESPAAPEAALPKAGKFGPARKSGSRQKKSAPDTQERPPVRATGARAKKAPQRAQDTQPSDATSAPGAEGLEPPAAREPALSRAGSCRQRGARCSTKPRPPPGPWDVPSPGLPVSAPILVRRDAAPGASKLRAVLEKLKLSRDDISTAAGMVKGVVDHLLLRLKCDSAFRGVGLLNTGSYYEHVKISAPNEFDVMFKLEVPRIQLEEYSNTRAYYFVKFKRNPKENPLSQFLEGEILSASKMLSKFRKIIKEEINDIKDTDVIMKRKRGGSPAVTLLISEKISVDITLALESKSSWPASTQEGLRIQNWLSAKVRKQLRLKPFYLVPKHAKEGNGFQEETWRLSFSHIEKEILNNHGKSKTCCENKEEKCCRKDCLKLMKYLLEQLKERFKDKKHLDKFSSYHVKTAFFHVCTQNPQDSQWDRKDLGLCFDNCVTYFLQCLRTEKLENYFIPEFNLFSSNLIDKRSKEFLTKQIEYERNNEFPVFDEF

| Compound | IC50 (recombinant human cGAS) [µM] | IC50 [1, 2] [µM] | IC50 ([1]; THP1 cells) [µM] |
| --- | --- | --- | --- |
| CC(=O)N1CCn2c(c(-c3cn[nH]c3)c3c(NC(=O)C(F)(F)F)cc(Cl)c(Cl)c32)C1 [Example 256, N-[2-Acetyl-6,7-dichloro-10-(1H-pyrazol-4-yl)-3,4-dihydro-1H-pyrazino[1,2-a]indol-9-yl]-2,2,2-trifluoro-acetamide] | 0.0386 | 4.8 | – |
| CCNc1cc(Cl)c(Cl)c2[nH]cc(-c3cn[nH]c3)c12 [Example 150, 6,7-Dichloro-N-ethyl-3-(1H-pyrazol-4-yl)-1H-indol-4-amine] | 0.0303 | 1.92 | – |
| CC(=O)N(C)CCC(=O)N1CCn2c(c(-c3cn[nH]c3)c3ccc(Cl)c(Cl)c32)C1 [Example 308, N-(3-(6,7-Dichloro-10-(1H-pyrazol-4-yl)-3,4-dihydropyrazino[1,2-a]indol-2(1H)-yl)-3-oxopropyl)-N-methylacetamide] | 0.0423 | 7.9 | – |
| COc1cc(Cl)cc2c1c(-c1cn[nH]c1)cn2-c1cn(CCO)nn1 [Example 161, 2-[4-[6-Chloro-4-methoxy-3-(1H-pyrazol-4-yl)indol-1-yl]triazol-1-yl]ethanol] | 0.0616 | 1.01 | – |
| NCC(=O)NCc1[nH]c2c(Cl)c(Cl)ccc2c1-c1cn[nH]c1 [Example 216, 2-Amino-N-[[6,7-dichloro-3-(1H-pyrazol-4-yl)-1H-indol-2-yl]methyl]acetamide formic acid salt] | 0.0598 | 4.17 | – |
| C[C@@H](O)C(=O)NCc1[nH]c2c(Cl)c(Cl)ccc2c1-c1cn[nH]c1 [Example 167, (R)—N-((6,7-Dichloro-3-(1H-pyrazol-4-yl)-1H-indol-2-yl)methyl)-2-hydroxypropanamide] | 0.0672 | 1.86 | – |
| OC/C=C/CNc1cc(Cl)c(Cl)c2[nH]cc(-c3cn[nH]c3)c12 [Example 121, (E)-4-((6,7-Dichloro-3-(1H-pyrazol-4-yl)-1H-indol-4-yl)amino)but-2-en-1-ol] | 0.0652 | 2.99 | – |
| OCC(O)CNc1cc(Cl)c(Cl)c2[nH]cc(-c3cn[nH]c3)c12 (single isomer, unassigned) [Example 262, 3-[[6,7-Dichloro-3-(1H-pyrazol-4-yl)-1H-indol-4-yl]amino]propane-1,2-diol] | 0.0772 | – | 3.62 |
| CN1CCOC(C(=O)N2CCn3c(c(-c4cn[nH]c4)c4c(OCC#N)cc(Cl)c(Cl)c43)C2)C1 (centres unmarked) [Example 294, 2-((6,7-Dichloro-2-(4-methylmorpholine-2-carbonyl)-10-(1H-pyrazol-4-yl)-1,2,3,4-tetrahydropyrazino[1,2-a]indol-9-yl)oxy)acetonitrile] | 0.0479 | 0.366 | – |
| NCCOCCOCCOCCC(=O)NC1CCc2c(-c3cn[nH]c3)c3ccc(Cl)c(Cl)c3n2C1 (centres unmarked) [Example 124, 3-[2-[2-(2-Aminoethoxy)ethoxy]ethoxy]-N-[3,4-dichloro-10-(1H-pyrazol-4-yl)-6,7,8,9-tetrahydropyrido[1,2-a]indol-7-yl]propanamide] | 0.0882 | > 10 | – |
| O=C(CO)Nc1cc(Cl)c(Cl)c2[nH]nc(-c3cn[nH]c3)c12 [Example 336, N-(6,7-Dichloro-3-(1H-pyrazol-4-yl)-1H-indazol-4-yl)-2-hydroxyacetamide] | 0.0385 | 0.492 | – |
| O=C(Cc1cnccn1)NCc1[nH]c2c(Cl)c(Cl)ccc2c1-c1cn[nH]c1 [Example 112, N-((6,7-Dichloro-3-(1H-pyrazol-4-yl)-1H-indol-2-yl)methyl)-2-(pyrazin-2-yl)acetamide] | 0.0361 | 1.56 | – |
| FC(F)(F)c1nnc(-c2[nH]c3c(Cl)c(Cl)ccc3c2-c2cn[nH]c2)o1 [Example 128, 2-(6,7-Dichloro-3-(1H-pyrazol-4-yl)-1H-indol-2-yl)-5-(trifluoromethyl)-1,3,4-oxadiazole] | 0.0691 | > 10 | – |
| NC(=O)CCC(=O)N1CCn2c(c(-c3cn[nH]c3)c3ccc(Cl)c(Cl)c32)C1 [Example 297, 4-(6,7-Dichloro-10-(1H-pyrazol-4-yl)-3,4-dihydropyrazino[1,2-a]indol-2(1H)-yl)-4-oxobutanamide] | 0.0251 | > 10 | – |
| C[C@H](O)C(=O)NCc1[nH]c2c(Cl)c(Cl)ccc2c1-c1cn[nH]c1 [Example 168, (S)—N-((6,7-Dichloro-3-(1H-pyrazol-4-yl)-1H-indol-2-yl)methyl)-2-hydroxypropanamide] | 0.0463 | 1 | – |
| O[C@H]1C[C@@H](Oc2cc(Cl)c(Cl)c3[nH]cc(-c4cn[nH]c4)c23)C1 [Example 207, Cis-3-[[6,7-Dichloro-3-(1H-pyrazol-4-yl)-1H-indol-4-yl]oxy]cyclobutanol] | 0.042 | 1.63 | – |
| CN(C)C(=O)COCC(=O)N1CCn2c(c(-c3cn[nH]c3)c3ccc(Cl)c(Cl)c32)C1 [Example 301, 2-(2-(6,7-Dichloro-10-(1H-pyrazol-4-yl)-3,4-dihydropyrazino[1,2-a]indol-2(1H)-yl)-2-oxoethoxy)-N,N-dimethylacetamide] | 0.0291 | > 10 | – |
| Cc1nc(C)n(CC(=O)N2CCn3c(c(-c4cn[nH]c4)c4c(OCC#N)cc(Cl)c(Cl)c43)C2)n1 [Example 293, 2-((6,7-Dichloro-2-(2-(3,5-dimethyl-1H-1,2,4-triazol-1-yl)acetyl)-10-(1H-pyrazol-4-yl)-1,2,3,4-tetrahydropyrazino[1,2-a]indol-9-yl)oxy)acetonitrile] | 0.0447 | > 10 | – |
| CC(=S)NCc1[nH]c2c(Cl)c(Cl)ccc2c1-c1cn[nH]c1 [Example 129, N-[[6,7-Dichloro-3-(1H-pyrazol-4-yl)-1H-indol-2-yl]methyl]thioacetamide] | 0.0552 | 0.895 | – |

Now those with a lower IC50 (recombinant human cGAS), led by results:

| IC50 (recombinant human cGAS) [µM] | IC50 [1, 2] [µM] | IC50 ([1]; THP1 cells) [µM] | Compound |
| --- | --- | --- | --- |
| 0.0234 | > 10 | – | O=C(CC1COCCOC1)N1CCn2c(c(-c3cn[nH]c3)c3ccc(Cl)c(Cl)c32)C1 [Example 298, 1-(6,7-Dichloro-10-(1H-pyrazol-4-yl)-3,4-dihydropyrazino[1,2-a]indol-2(1H)-yl)-2-(1,4-dioxepan-6-yl)ethan-1-one] |
| 0.0186 | 3.66 | – | CC(=O)NCCS(=O)(=O)NC1CCc2c(-c3cn[nH]c3)c3ccc(Cl)c(Cl)c3n2C1 (centres unmarked) [Example 119, N-(2-(N-(3,4-Dichloro-10-(1H-pyrazol-4-yl)-6,7,8,9-tetrahydropyrido[1,2-a]indol-7-yl)sulfamoyl)ethyl)acetamide] |
| 0.0159 | 2.06 | – | O=C(CO)NC1CCc2c(-c3cn[nH]c3)c3ccc(Cl)c(Cl)c3n2C1 (centres unmarked) [Example 95, N-[3,4-Dichloro-10-(1H-pyrazol-4-yl)-6,7,8,9-tetrahydropyrido[1,2-a]indol-7-yl]-2-hydroxy-acetamide] |
| 0.0154 | 2.27 | – | O=S(=O)(CCn1cnnn1)NC1CCc2c(-c3cn[nH]c3)c3ccc(Cl)c(Cl)c3n2C1 (centres unmarked) [Example 120, N-(3,4-Dichloro-10-(1H-pyrazol-4-yl)-6,7,8,9-tetrahydropyrido[1,2-a]indol-7-yl)-2-(1H-tetrazol-1-yl)ethane-1-sulfonamide] |
| 0.0146 | – | 2.73 | O=C(CO)NC1Cc2c(-c3cn[nH]c3)c3ccc(Cl)c(Cl)c3n2C1 (single isomer, unassigned) [Example 247, N-(5,6-Dichloro-9-(1H-pyrazol-4-yl)-2,3-dihydro-1H-pyrrolo[1,2-a]indol-2-yl)-2-hydroxyacetamide] |
| 0.0138 | 0.656 | – | O=C(Nc1cc(Cl)c(Cl)c2[nH]cc(-c3cn[nH]c3)c12)C(F)(F)CO [Example 169, N-(6,7-Dichloro-3-(1H-pyrazol-4-yl)-1H-indol-4-yl)-2,2-difluoro-3-hydroxypropanamide] |
| 0.0125 | > 10 | – | O=C(O)Cn1cc(-n2cc(-c3cn[nH]c3)c3ccc(Cl)c(Cl)c32)nn1 [Example 212, 2-[4-[6,7-Dichloro-3-(1H-pyrazol-4-yl)indol-1-yl]triazol-1-yl]acetic acid] |
| 0.0118 | 0.875 | – | FCCOc1cc(Cl)c(Cl)c2[nH]cc(-c3cn[nH]c3)c12 [Example 183, 6,7-Dichloro-4-(2-fluoroethoxy)-3-(1H-pyrazol-4-yl)-1H-indole] |
| 0.011 | 0.395 | – | OCCCNc1cc(Cl)c(Cl)c2c1c(-c1cn[nH]c1)cn2-c1cn(CCO)nn1 [Example 198, 3-[[6,7-Dichloro-1-[1-(2-hydroxyethyl)triazol-4-yl]-3-(1H-pyrazol-4-yl)indol-4-yl]amino]propan-1-ol] |
| 0.0099 | 0.531 | – | CC(=O)N[C@H]1Cc2c(-c3cn[nH]c3)c3c(NC(=O)C(F)F)cc(Cl)c(Cl)c3n2C1 [Example 244, (S)—N-(2-Acetamido-5,6-dichloro-9-(1H-pyrazol-4-yl)-2,3-dihydro-1H-pyrrolo[1,2-a]indol-8-yl)-2,2-difluoroacetamide] |
| 0.00491 | 0.547 | – | FCCNc1cc(Cl)c(Cl)c2[nH]cc(-c3cn[nH]c3)c12 [Example 123, 6,7-Dichloro-N-(2-fluoroethyl)-3-(1H-pyrazol-4-yl)-1H-indol-4-amine] |
| 0.00322 | 0.143 | – | OCCCOc1cc(Cl)c(Cl)c2[nH]cc(-c3cn[nH]c3)c12 [Example 193, 3-[[6,7-Dichloro-3-(1H-pyrazol-4-yl)-1H-indol-4-yl]oxy]propan-1-ol] |

Reference: patent publication US20230391786A1, “cGAS INHIBITORS” (Eli Lilly and Company, priority 2022, published 2023)
